Read-outs that look alike come from different tables or passages of the source.
What was measured:
[1] = In-vivo pharmacokinetic evaluation in SD rats; settings: male SD rats; for AUC(0-t) / MRT last / half-life / bioavailability: rat, plasma; for AUC(0-t) / MRT last / half-life / CL_obs / Vz_obs: 2.0 mg/kg; for bioavailability: oral, p.o. 2.0 mg/kg vs i.v. 2.0 mg/kg, read-out: F (oral bioavailability); for CL_obs / Vz_obs: i.v.
Experimental: Twelve male SD rats weighing 220±20g, were randomly divided into four groups.
Two groups were respectively given IV-9 and V-9A by tail vein injection at doses given in a table below, and before and 10 min, 20 min. 30 min, 1 h, 2 h, 4 h, 8 h, 12 h, 24 h and 36 h after administration, about 0.200 mL of blood was collected from the jugular vein, placed in a test tube containing EDTA-K2, and centrifuged at a high speed (7800×g) for 15 min. The plasma was separated, and stored at −15° C. to −35° C. The pharmacokinetic differences of IV-9 and V-9A administered by intravenous injection were compared.
The other two groups were respectively given IV-9 and V-9A by oral gavage at doses given in a table below, and before and 5 min, 10 min, 20 min, 30 min, 1 h, 2 h, 4 h, 8 h, 12 h, 24 h and 36 h after administration, about 0.200 mL of blood was collected from the jugular vein, placed in a test tube containing EDTA-K2, and centrifuged at a high speed (7800×g) for 15 min. The plasma was separated, and stored at −15° C. to −35° C. The pharmacokinetic differences of IV-9 and V-9A administered by oral gavage were compared.

[2] = target: proteasome activity in blood cells (Mus musculus (Mouse), UniProt O55234); test: In-vivo pharmacodynamics: proteasome activity in blood cells; settings: ICR mice, oral single dose 2 mg/kg
Sequence of proteasome activity in blood cells (O55234 60-264): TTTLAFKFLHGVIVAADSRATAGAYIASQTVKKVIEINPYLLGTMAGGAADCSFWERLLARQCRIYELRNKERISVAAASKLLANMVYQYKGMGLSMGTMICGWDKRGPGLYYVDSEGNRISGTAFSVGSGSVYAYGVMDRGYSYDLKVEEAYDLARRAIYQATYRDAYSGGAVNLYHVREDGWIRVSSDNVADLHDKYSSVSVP
Experimental: The compound designed in the present invention can be used to treat malignant tumors of the blood system, so the efficacy of the compound was evaluated by detecting the activity of the proteasome in the blood after single administration, and the in-vivo pharmacodynamic study can be carried out by blood sampling at different time points.
1. 8 week-old ICR mice purchased from Shanghai Bikai Laboratory Animal Co., Ltd., were transferred to a barrier system to adapt to the environment for one week.
2. The animals were divided into three groups, including a positive control group (MLN9708) and two experimental groups (IV-9, V-9A), each group having 3 animals.
3. Before administration, 100 μL of blood was sampled from each animal from the orbital venus plexus and used as the blank control, and the proteasome activity measured in blood cells in this sample was taken as 100%. 1 and 24 hrs after administration, blood was sampled from the orbital venus plexus, and the proteasome activity in blood cells was detected. The inhibitory effect of the drug on proteasome activity and recovery of proteasome activity in blood was obtained by comparison with the data at time 0.
4. […]
5. […] A cell lysing solution was added for protein quantification to correct the detected value. […] The dilution was further reacted with the fluorescent peptide substrate to detect the proteasome activity on a microplate reader.

ARH-77 xenograft tumors = test: Evaluation in animal model of xenotransplantation (ARH-77 xenograft); assay type: in vivo, Balb/c nude mice; settings: oral; for RTV Mean / T/C / TGI (tumor inhibition rate) / TV Mean: three weeks
Experimental: The human multiple myeloma cell line ARH-77 was used to implant tumors under the skin of Balb/enude mice to establish a transplanted tumor model. The specific experimental process is as follows.
1. 4-6 week-old Balb/c nude mice purchased from Shanghai Bikai Laboratory Animal Co., Ltd., were transferred to a barrier system to adapt to the environment for one week.
2. The cells were cultured to the logarithmic growth phase, digested, centrifuged, re-suspended in Matrigel at a density of 1×10^7 cells/ml, and placed on ice for later use. In the barrier system, the tumor cells were inoculated into the axilla of the animal's right forelimb in an amount of 1×10^6 cells per animal, and the inoculation volume for each animal was 100 microliters.
3. The animals were grown and the tumor volume was measured by a vernier caliper. When the average volume was increased to 100-150 mm^3, the animals were randomly divided into three groups including a blank control group, a positive drug group (Compound MLN-9708) and an experimental group […]), each group having 6 animals.
The formula for calculating tumor volume is: Volume(mm3)=0.5×(Length(mm)×Width(mm)2)
4. The compound used was formulated with a 5% R-sulfobutyl cyclodextrin sodium aqueous solution to give an appropriate concentration, ultrasonicated until the solution became clear, and then stored in a refrigerator at 4° C. for later use.
5. The mice were orally administered. The frequency of administration for the positive drug group was twice a week, and the dosage was 5 mg/kg. The mice in the experimental group were administered daily, and the dosage was 1 mg/kg. The administration was continuous for three weeks, and then the mice were sacrificed to end the experiment. During this process, the tumor volume was measured and recorded twice a week. The inhibitory effect of agents on tumor growth was calculated by the GraphPad Prism software.

[3] = target: human erythrocyte 20S proteasome (Homo sapiens (Human), UniProt P28074); test: Assay of inhibition on proteasome activity (chymotrypsin-like, Suc-LLVY-AMC substrate); assay type: biochemical
Source text: The proteasome used in the present invention is human erythrocyte 20S proteasome, and the enzyme, fluorescent substrate and test buffer are all purchased from Enzo.

CSC[C@H](NC(=O)c1cc(Cl)ccc1Cl)C(=O)N[C@@H](CC(C)C)B1OCCNCCO1 [Compound V-9A, (R)-diethanolamine N-(2,5-dichlorobenzoyl)-3-methylmercaptopropionamido-D-leucine borate]
AUC(0-t) ([1]; Sprague-Dawley (SD), iv): 2550 ng·h/mL | MRT last ([1]; Sprague-Dawley (SD), iv): 2.18 h | half-life ([1]; Sprague-Dawley (SD), iv): 3.1 h | bioavailability ([1]; Sprague-Dawley (SD)): 24.9% | AUC(0-t) ([1]; Sprague-Dawley (SD), po): 634 ng·h/mL | MRT last ([1]; Sprague-Dawley (SD), po): 3.37 h | half-life ([1]; Sprague-Dawley (SD), po): 2.88 h | CL_obs [1]: 11.2 mL/min/kg | Vz_obs [1]: 3.01 L/kg | inhibitory activity on proteasome in blood cells ([2]; 1 hr after administration, compared with MLN9708 5 mg/kg): even better inhibitory activity | proteasome activity in blood cells recovered, of the activity in the control group ([2]; 24 hrs after administration): 40% | TW Mean (Day 21) (ARH-77 xenograft tumors; 1 mg/kg daily): 0.65 g | RTV Mean (ARH-77 xenograft tumors; 1 mg/kg daily): 3.72 | T/C (ARH-77 xenograft tumors; 1 mg/kg daily): 24.02% | TGI (tumor inhibition rate) (ARH-77 xenograft tumors; 1 mg/kg daily): 63.48% | TV Mean (ARH-77 xenograft tumors; 1 mg/kg daily): 354.78 mm^3 | IC50 [3]: 5.69 nM

CSC[C@H](NC(=O)c1cc(Cl)ccc1Cl)C(=O)N[C@@H](CC(C)C)B1OC(=O)CC(CC(=O)O)(C(=O)O)O1 (stereo partly drawn) [Compound V-9B, (R)-N-(2,5-dichlorobenzoyl)-3-methylmercaptopropionamido-D-leucine borate citratte]
IC50 [3]: 6.6 nM

CSC[C@H](NC(=O)c1cc(Cl)ccc1Cl)C(=O)N[C@@H](CC(C)C)B(O)O [IV-9]
CL_obs [1]: 16.4 mL/min/kg | Vz_obs [1]: 2.914 L/kg | AUC(0-t) ([1]; iv): 1890 ng·h/mL | MRT last ([1]; iv): 1.55 h | half-life ([1]; iv): 2.08 h | bioavailability [1]: 11% | AUC(0-t) ([1]; po): 208 ng·h/mL | MRT last ([1]; po): 2.35 h | half-life ([1]; po): 2.14 h

CC(C)C[C@H](NC(=O)CNC(=O)c1cc(Cl)ccc1Cl)B1OC(=O)CC(CC(=O)O)(C(=O)O)O1 (stereo partly drawn) [MLN9708, reference compound]
TW Mean (Day 21) (ARH-77 xenograft tumors; 5 mg/kg twice a week): 1.33 g | RTV Mean (ARH-77 xenograft tumors; 5 mg/kg twice a week): 9.13 | T/C (ARH-77 xenograft tumors; 5 mg/kg twice a week): 58.94% | TGI (tumor inhibition rate) (ARH-77 xenograft tumors; 5 mg/kg twice a week): 25.28% | TV Mean (ARH-77 xenograft tumors; 5 mg/kg twice a week): 1042.71 mm^3 | TGI (tumor inhibition rate) (ARH-77 xenograft tumors; 5 mg/kg twice a week, listed as MLN-9708): 25.28%

Reference: patent publication US11542283B2, “Synthesis of peptide borate ester compound and use thereof” (JIANGSU CHIA TAI FENGHAI PHARMACEUTICAL CO., LTD., priority 2018, dated 2023)
